From the SangsterLogP compilation come the findings set out here.

The series in a line: method code SF-AS, from DOI: 10.1016/0006-2952(66)90048-7. The note with it: for logD: pH 7.0.

`O=C(NC(=O)c1ccccc1O)c1ccccc1O` had a lipophilicity (logP) of 1.92. As for `NC(=O)c1ccccc1O`, the pH-dependent lipophilicity (logD) stood at 0.89. `CC(=O)Oc1cccc(OC(C)=O)c1C(N)=O` gave a logP of -0.62. Same read-out and setting: under `NC(=O)c1c(O)cccc1O` stands 0.6; under `O=C(NC(=O)c1ccc(O)cc1O)c1ccc(O)cc1O`, 0.86.

`NC(=O)c1ccc(O)cc1O`: the logP is -0.15. In the case of `O=C(NC(=O)c1ccccc1O)c1ccccc1`, the log partition coefficient (logP) was 1.38. As to `O=C(O)c1ccccc1NC(=O)c1c(O)cccc1O`, the lipophilicity (logP) was determined as 0.32. `O=C(Nc1ccccc1)c1c(O)cccc1O` displayed a logD of 1.43.

As for `O=C(Nc1ccccc1C(=O)O)c1ccccc1O`, the logP stood at 0.74. Still for that read-out and setting: under `O=C(NC(=O)c1c(O)cccc1O)c1c(O)cccc1O` stands 1.15.
